Data as given in paper PMC6784244 (Toxins, 2019).
Converted amounts (≈) assume the structure as drawn. “And” between values parts separate entries of the source, which are not always exact repeats. Identical values can stand only once.

Assays:
[1] = lipid monolayer at air-water interface on PBS pH 7.4, peptide 1 µM, initial pressure 10-30 mN/m, extrapolated to delta pressure 0
Method: (§1) Peptide–lipid interaction was evaluated using reconstituted lipid monolayer at the air–water interface as previously described. Pure prokaryotic and eukaryotic lipids used were: POPC (1-palmitoyl-2-oleoyl-glycero-3-phosphocholine), POPE (1-palmitoyl-2-oleoyl-sn-glycero-3-phosphoethanolamine), POPG (1-palmitoyl-2-oleoyl-sn-glycero-3-phospho-(1’-rac-glycerol), and cardiolipin, all from Avanti Polar Lipid (Alabama, USA). LTA (Lipoteichoic acid from B. subtilis) was obtained from Invivogen SAS (Toulouse, France). Pure lipids were reconstituted in chloroform:methanol (2:1, v:v) at 1 mg/mL and stored at −20 °C under nitrogen. The interaction and insertion of the ENN and BEA into lipids were evaluated through the measurement of their critical pressure of insertion as previously described. Briefly, lipids were spread using a 50 µL Hamilton’s syringe at the surface of 800 µL of sterile PBS creating a lipid monolayer at the air–water interface. Lipids were added until the surface pressure reached the desired value. After 5–10 min of incubation allowing evaporation of the solvent and stabilization of the initial surface pressure, 8 µL of ENN or BEA diluted in sterile PBS at 100 µM were injected into the 800 µL sub-phase of PBS under the lipid monolayer (pH 7.4, volume 800 µL) using a 10 µL Hamilton syringe giving a final concentration of peptides of 1 µM, preliminary experiments having shown that this concentration gave optimal insertion. The variation of the surface pressure caused by peptide injection was then continuously monitored using a fully automated microtensiometer (µTROUGH SX, Kibron Inc., Helsinki, Finland) until reaching equilibrium (maximal surface pressure increase being usually obtained after 15–25 min). The critical pressure of insertion of each peptide was determined by changing the initial pressure of lipid monolayer (from 10 and 30 mN/m) and measuring the variation of pressure caused by the insertion of the peptide. The critical pressure of insertion of each peptide in a particular lipid was determined graphically and calculated as the theoretical value of initial pressure of lipid monolayer not permissive to peptide insertion, i.e., causing a variation of pressure equal to 0 mN/m.

[2] = parameters: species or system B. subtilis; conditions: lipid monolayer on PBS pH 7.4, peptide 1 µM, extrapolated to delta pressure 0; -- = absence of interaction
Method: as §1

[3] = tested on: C. perfringens; assay type: cell-based, Clostridium perfringens
[4] = tested on: C. perfringens; assay type: cell-based, Clostridium perfringens; remark: listed apart in the source
[5] = tested on: Bacillus subtilis (ATCC 6633)
[6] = tested on: Nisin-resistant B. subtilis (DSMZ 347)
[7] = tested on: Vancomycin-resistant Enterococcus faecalis (DSMZ 13591)
[8] = tested on: Staphylococcus aureus (ATCC CRM-6538P)
[9] = tested on: Escherichia coli (ATCC 8739)
[10] = tested on: Helicobacter pylori (ATCC 43504)
[11] = tested on: Aspergillus flavus (DSMZ 1959); conditions: DSMZ 1959, pH 7
[12] = tested on: A. niger (ATCC 9142); conditions: ATCC 9142, pH 7
[13] = tested on: F. oxysporum (DSMZ 62316); conditions: DSMZ 62316, pH 7
[14] = tested on: F. verticillioides (DSMZ 62264); conditions: DSMZ 62264, pH 7
[15] = tested on: Penicillium verrucosum (DSMZ 12639); conditions: DSMZ 12639, pH 7
[16] = tested on: Stachybotrys chartarum (DSMZ 2144); conditions: DSMZ 2144, pH 7
[17] = tested on: HEK (human normal epidermal keratinocytes); conditions: 48 h
[18] = tested on: N87 (human gastric cell line); conditions: 48 h
[19] = tested on: C. perfringens; assay type: cell-based, Clostridium perfringens; remark: listed apart in the source
[20] = tested on: Clostridium perfringens (ATCC 13124)

## CC[C@H](C)[C@H]1C(=O)O[C@H](C(C)C)C(=O)N(C)[C@@H]([C@@H](C)CC)C(=O)O[C@H](C(C)C)C(=O)N(C)[C@@H](C(C)C)C(=O)O[C@H](C(C)C)C(=O)N1C [ENN A1]
[1]
  critical pressure of insertion, POPC: 38.06 mN/m
  critical pressure of insertion, POPE: 34.38 mN/m
[2]
  critical pressure of insertion, LTA: 53.71 mN/m
[3]
  membrane depolarization at 100 µM: 97.4 ± 5.3%
  membrane depolarization at four times their MIC: 75.3 ± 2.0%
[4]
  Known/possible target: RNA biosynthesis
  Observed Morphology: • No cell elongation • DNA condensed in one filament crossing the cells
[5]
  MIC, B. subtilis: 12.5 to 25 µM
[6]
  MIC, B. subtilis NR: 25 µM (≈ 16.7 µg/mL)
[7]
  MIC, E. faecalis: 6.25 µM (≈ 4.17 µg/mL)
[8]
  MIC, S. aureus: 12.5 to 25 µM
[9]
  MIC, E. coli: >100 µM
[10]
  MIC, H. pylori: >100 µM
[11]
  MIC, A. flavus: >100 µM
[12]
  MIC, A. niger: >100 µM
[13]
  MIC, F. oxysporum: >100 µM
[14]
  MIC, F. verticillioides: >100 µM
[15]
  MIC, P. verrucosum: >100 µM
[16]
  MIC, S. chartarum: >100 µM
[17]
  IC50: 2300 ± 100 nM
[18]
  IC50: 3 ± 2 nM

## CC[C@H](C)[C@H]1C(=O)O[C@H](C(C)C)C(=O)N(C)[C@@H]([C@@H](C)CC)C(=O)O[C@H](C(C)C)C(=O)N(C)[C@@H]([C@@H](C)CC)C(=O)O[C@H](C(C)C)C(=O)N1C [ENN A]
[1]
  critical pressure of insertion, POPC: 40.28 mN/m
  critical pressure of insertion, POPE: 38.12 mN/m
[2]
  critical pressure of insertion, LTA: 56.1 mN/m
[19]
  percentage of membrane permeabilization at 100 µM, 120 min: 37.1 ± 6.7%
  percentage of permeabilization at four times the MIC: 7.2 ± 2.5%
[3]
  membrane depolarization at 100 µM: 108.9 ± 7.3%
  membrane depolarization at four times their MIC: 80.8 ± 3.2%
[4]
  Known/possible target: RNA biosynthesis
  Observed Morphology: • Some cell elongation • DNA condensed in one filament crossing the cells
[5]
  MIC, B. subtilis: 6.25 to 12.5 µM
[6]
  MIC, B. subtilis NR: 6.25 to 12.5 µM
[20]
  MIC, C. perfringens: 3.12 µM (≈ 2.13 µg/mL)
[7]
  MIC, E. faecalis: 3.12 µM (≈ 2.13 µg/mL)
[8]
  MIC, S. aureus: 6.25 to 12.5 µM
[9]
  MIC, E. coli: >100 µM
[10]
  MIC, H. pylori: >100 µM
[11]
  MIC, A. flavus: >100 µM
[12]
  MIC, A. niger: >100 µM
[13]
  MIC, F. oxysporum: >100 µM
[14]
  MIC, F. verticillioides: >100 µM
[15]
  MIC, P. verrucosum: >100 µM
[16]
  MIC, S. chartarum: >100 µM
[17]
  IC50: 2000 ± 100 nM
[18]
  IC50: 10 ± 10 nM

## CC[C@H](C)[C@H]1C(=O)O[C@H](C(C)C)C(=O)N(C)[C@@H](C(C)C)C(=O)O[C@H](C(C)C)C(=O)N(C)[C@@H](C(C)C)C(=O)O[C@H](C(C)C)C(=O)N1C [ENN B1]
[1]
  critical pressure of insertion, POPC: 36.19 mN/m
  critical pressure of insertion, POPE: 31.87 mN/m
[2]
  critical pressure of insertion, LTA: 43.62 mN/m
[3]
  membrane depolarization at 100 µM: 97.6 ± 9.1%
  membrane depolarization at four times their MIC: 68.0 ± 4.3%
  membrane depolarization at their MIC: 47.4 ± 4.6% and 30–40%
[4]
  Known/possible target: Protein biosynthesis
  Observed Morphology: • Some cell elongation (1.5–2 times compared to control) • DNA condensed in 1–4 circles per cells
[5]
  MIC, B. subtilis: 25 to 50 µM
[6]
  MIC, B. subtilis NR: 50 µM (≈ 32.7 µg/mL)
[20]
  MIC, C. perfringens: 6.25 µM (≈ 4.09 µg/mL)
[7]
  MIC, E. faecalis: 12.5 µM (≈ 8.17 µg/mL)
[8]
  MIC, S. aureus: 25 µM (≈ 16.3 µg/mL)
[9]
  MIC, E. coli: >100 µM
[10]
  MIC, H. pylori: >100 µM
[11]
  MIC, A. flavus: >100 µM
[12]
  MIC, A. niger: >100 µM
[13]
  MIC, F. oxysporum: >100 µM
[14]
  MIC, F. verticillioides: >100 µM
[15]
  MIC, P. verrucosum: >100 µM
[16]
  MIC, S. chartarum: >100 µM
[17]
  IC50: 3300 ± 500 nM
[18]
  IC50: 8 ± 8 nM

## CC(C)[C@H]1C(=O)O[C@H](C(C)C)C(=O)N(C)[C@@H](C(C)C)C(=O)O[C@H](C(C)C)C(=O)N(C)[C@@H](C(C)C)C(=O)O[C@H](C(C)C)C(=O)N1C [ENN B]
[1]
  critical pressure of insertion, POPC: 32.92 mN/m
  critical pressure of insertion, POPE: 30.15 mN/m
[2]
  critical pressure of insertion, LTA: 38.9 mN/m
[19]
  percentage of membrane permeabilization at 100 µM, 120 min: 19.6 ± 7.9%
[3]
  membrane depolarization at 100 µM: 44.9 ± 8.7%
  membrane depolarization at four times their MIC: 44.2 ±1.8%
  membrane depolarization at their MIC: 36.4 ± 3.8% and 30–40%
[4]
  Known/possible target: Protein biosynthesis
  Observed Morphology: • Some cell elongation (1.5–2 times compared to control) • DNA condensed in 1–4 circles per cells
[5]
  MIC, B. subtilis: >100 µM
[6]
  MIC, B. subtilis NR: >100 µM
[20]
  MIC, C. perfringens: 12.5 µM (≈ 8 µg/mL)
[7]
  MIC, E. faecalis: >100 µM
[8]
  MIC, S. aureus: >100 µM
[9]
  MIC, E. coli: >100 µM
[10]
  MIC, H. pylori: >100 µM
[11]
  MIC, A. flavus: >100 µM
[12]
  MIC, A. niger: >100 µM
[13]
  MIC, F. oxysporum: >100 µM
[14]
  MIC, F. verticillioides: >100 µM
[15]
  MIC, P. verrucosum: >100 µM
[16]
  MIC, S. chartarum: >100 µM
[17]
  IC50: 54200 ± 35300 nM
[18]
  IC50: 1700 ± 100 nM
